# Results: publication PMC11793105, “A kalihinol analog disrupts apicoplast function and vesicular trafficking in P. falciparum malaria” (Science (New York, N.Y.), 2024)
# Read-outs that look alike come from different tables or passages of the source.
# What was measured:
# [1] = tested on: P. falciparum 3D7 (MRA-102, drug sensitive); assay: SYBR Green I growth inhibition assay, 3D7; assay type: cell-based; conditions: Plasmodium falciparum
# Method: (§1) Fig. 1. […] (B) SYBR Green–based dose response assays were conducted on early-ring stage parasites (6 hours after invasion). […] 3D7 WT (blue), NF54 (green), drug-resistant strains Dd2 (red), HB3 (black), W2 (gray), and D10-ACP-GFP (purple) lines (Sigmoidal, 4PL, X is concentration, n ≥ 3, nonlinear regression, CI: 95%). (C) Schematic diagram of the development of P. falciparum after two consecutive erythrocytic cycles. The time points at which MED6-189 was introduced are depicted in green. HPS, hours post synchronization. […] The images depict various developmental stages of the parasite’s intraerythrocytic life cycle. Bordered images represent time points when drug was first introduced (n = 3 biological replicates, P < 0.05).
# (§2) Detailed information on materials and methods is available in the supplementary materials. […] P. knowlesi assays were quantitatively measured by flow cytometry using SYBR Green I and Mitrotracker Deep Red, as previously described ([84], [85]), on a Beckman Coulter CytoFLEX. […]
# (§3) P. falciparum in vitro SYBR green fluorescence-based assays The anti-malarial activity of individual analogues were evaluated in-vitro against P. falciparum 3D7 (MRA-102, drug […]
# green-I based fluorescence assay. Parasite growth rate and stages of development were determined via microscopy through Giemsa-stained smears of the cultures. […]
# [2] = tested on: P. falciparum D10-ACP-GFP (MRA-568); assay: SYBR Green I growth inhibition assay, D10-ACP-GFP; assay type: cell-based, Plasmodium falciparum; conditions: early-ring stage, 72 h exposure
# Method: as §1, with “Bordered images represent time points when drug was first introduced (n = 3 biological replicates, P < 0.05).” left out
# Fluorescence microscopy analyses were conducted using D10-ACP-GFP transgenic parasites, which express a fusion of the acyl carrier protein (ACP) with green fluorescent protein (GFP) in the parasite apicoplast ([25]). […]
# as §2, §3
# green-I based fluorescence assay. […]
# [3] = tested on: PfSec13-mut transgenic clones (3D7); assay: Parasite survival assay, CRISPR-Cas9 PfSec13-mut transgenic clones; assay type: cell-based; conditions: Plasmodium falciparum
# Description: Fig. 4. […] (C) Schematic representation of the CRISPR-Cas9–based replacement strategy used to introduce a deletion of the targeted repeat regions in the PfSec13 gene. The insertion was achieved through overlap extension polymerase chain reaction (PCR) of fragments directly upstream and downstream of the target segment and subsequently formed by primer overlap extension PCR to replicate the desired deletion. […] (D) Predicted structure of the SEC13 protein highlighting the seven amino acid tandem repeat regions targeted for deletion (red). […] Data were analyzed using a Sigmoidal, 4PL (X represents concentration, n = 3, nonlinear regression, CI: 95%).
# as §3
# green-I based fluorescence assay. Parasite growth rate and stages of development were determined via microscopy through Giemsa-stained smears of the cultures. Serial dilutions of the compounds ranging from 10uM-0.5nM were prepared in 96-well plates (Corning, Costar 3904) followed by […]
# hematocrit added to each well. Eight wells were treated with vehicle control (DMSO) as control.
# Plates were incubated in a modular incubation chamber (Billups-Rothenberg, Del Mar, CA)
# [4] = tested on: P. falciparum NF54 gametocytes; assay: Gametocyte development (sexual stage phenotype) assay; assay type: cell-based, Plasmodium falciparum; parameters: gametocytes after high dose: dose or concentration left out as unconfirmed
# Description: Parasitemia and sexual stage phenotype analyses To understand the phenotypic effects of […]
# exposed to stress induced gametocyte induction followed by treatment with N-acetyl glucosamine (NAG; Sigma-Aldrich) supplemented media for 6-7 days to eliminate remaining asexual parasites.
# Upon first signs of gametocyte formation observed through giemsa stained smears (5-7 post stress […]
# with 3 biological replicates per condition. Culture media were replaced daily with reintroduction of the drug. Gametocyte parasitemia and proportion of the different sexual blood stages were determined by counting Giemsa-stained blood smears by light microscopy at every 24-hour time
# [5] = Tolerability study and toxicological profile; assay type: in vivo, Male CD1 mouse; conditions: for adverse effects (Functional Observational Battery): oral
# Method: Tolerability studies used Male CD1 (20-22 g Envigo).
# Blood samples for analysis were carried out in the Abacus5 junior Vet (Practice CVM S.L.L). Clinical chemistry was performed by mean analysis of whole blood in Vetscan (ABAXIS) and F560 (Menarini) analyzer and by mean analysis of plasma.
# Tolerability study Male CD1 (20-22g Envigo) were used in tolerability studies.
# All animal studies were ethically reviewed and carried out in accordance with European Directive
# were housed in cages (Tecniplast®). The cages contained autoclaved dust free corncob bedding
# (Rehofix MK2000, 1.7-2.2 mm particle size) and carry filters covers. Animal maintenance
# standard g-irradiated standard rodent diet (Envigo Teklad 2914) and ultra-filtered water was
# provided ad libitum. Environmental conditions: Photoperiods, simulated dawn/dusk facility, were
# adjusted to 12h of light (300 lux) and 12h darkness daily. The temperature range was 22± 2 °C.
# Relative humidity was 55% ± 10 and the air room was changed 15-20 times per hour.
# Environmental enrichment included nesting material (nesting cups, LBS), a red-tinted igloo
# (Datesand), a hanging clear tunnel (Datesand, and two wood blocks (Datensand).
# Protocol design Male CD1 mouse (n=1) was dosed with an initial dose at 100 mg/kg (1-day, oral
# route, once a day, 10ml/kg). The animals were observed during the first four hours after
# administration and after 24h. The neurobehavioral assessment Functional Observational Battery
# the modified symptom-based Up-&-Down method and adjusted a constant factor (1.6). Other male
# Two mice were treated at 50
# To confirm the data, 3 animals per dose
# (100mg/kg and 63.4 mg/kg) and vehicle group with 1% Methylcellulose + 0.5% Tween (n=2) were
# dosed. Systemic exposure levels at different times were taken (0.5h, 2h, 4h, 8, 24, 48h) of treated
# animals (n=3 per group) and a toxicological profile was performed after 7 days of treatment
# (hematology, clinical chemistry, and necropsy). Additionally in the same animals with the same
# scheduling sampling, blood samples of 15 uL were taken from lateral tail vein and recovered in a
# vial with the same quantity of water, mix and freeze until bioanalytical quantification for the
# determination of blood level exposures and pharmacokinetic analysis.
# Toxicological Profile The bodyweight of animals was recorded before dosage, 24 hours after and
# every day in animals kept for 7 days. Any sign of toxicity was recorded for 4h and 24h hours after
# drug administration (Functional Observational Battery). All animals were sacrificed by CO2
# inhalation. Blood samples for analysis were then taken by intracardiac puncture and fractionated
# to blood recount and serum analysis. The blood recount was carried out in the Abacus5 junior Vet
# → (Practice CVM S.L.L). Clinical chemistry was performed by mean analysis of whole blood in
# Vetscan→ (ABAXIS) & F560 (Menarini→) analyzer and by mean analysis of plasma, obtained
# after centrifugation at 1800g rpm for 10 min in S-Microvette tubes (Sarstedt→) with Heparin-
# Lithium. The plasma parameters tested were: glucose, ALP, AST, ALT, GGT, LDH, AMY, CK
# Calcium, Phosphate, Sodium, Potassium, total bilirrubin, total protein, albumin, blood ureic
# nitrogen (BUN), creatinine, triglycerides, cholesterol. After necropsy, several organs (liver,
# kidney, spleen, Caecum, and stomach) were removed and weighed. Liver, kidney, and spleen were
# fixed in formalin (formaldehyde 10%) to further histopathology study (Hematoxilin/Eosin stain).
# [6] = biological target: BSEP (bile salt export pump) (Homo sapiens, UniProt O95342); assay: Enhanced Cross Screen Panel (eXP): BSEP inhibition
# Chain of BSEP (bile salt export pump) (O95342 whole entry, species assumed): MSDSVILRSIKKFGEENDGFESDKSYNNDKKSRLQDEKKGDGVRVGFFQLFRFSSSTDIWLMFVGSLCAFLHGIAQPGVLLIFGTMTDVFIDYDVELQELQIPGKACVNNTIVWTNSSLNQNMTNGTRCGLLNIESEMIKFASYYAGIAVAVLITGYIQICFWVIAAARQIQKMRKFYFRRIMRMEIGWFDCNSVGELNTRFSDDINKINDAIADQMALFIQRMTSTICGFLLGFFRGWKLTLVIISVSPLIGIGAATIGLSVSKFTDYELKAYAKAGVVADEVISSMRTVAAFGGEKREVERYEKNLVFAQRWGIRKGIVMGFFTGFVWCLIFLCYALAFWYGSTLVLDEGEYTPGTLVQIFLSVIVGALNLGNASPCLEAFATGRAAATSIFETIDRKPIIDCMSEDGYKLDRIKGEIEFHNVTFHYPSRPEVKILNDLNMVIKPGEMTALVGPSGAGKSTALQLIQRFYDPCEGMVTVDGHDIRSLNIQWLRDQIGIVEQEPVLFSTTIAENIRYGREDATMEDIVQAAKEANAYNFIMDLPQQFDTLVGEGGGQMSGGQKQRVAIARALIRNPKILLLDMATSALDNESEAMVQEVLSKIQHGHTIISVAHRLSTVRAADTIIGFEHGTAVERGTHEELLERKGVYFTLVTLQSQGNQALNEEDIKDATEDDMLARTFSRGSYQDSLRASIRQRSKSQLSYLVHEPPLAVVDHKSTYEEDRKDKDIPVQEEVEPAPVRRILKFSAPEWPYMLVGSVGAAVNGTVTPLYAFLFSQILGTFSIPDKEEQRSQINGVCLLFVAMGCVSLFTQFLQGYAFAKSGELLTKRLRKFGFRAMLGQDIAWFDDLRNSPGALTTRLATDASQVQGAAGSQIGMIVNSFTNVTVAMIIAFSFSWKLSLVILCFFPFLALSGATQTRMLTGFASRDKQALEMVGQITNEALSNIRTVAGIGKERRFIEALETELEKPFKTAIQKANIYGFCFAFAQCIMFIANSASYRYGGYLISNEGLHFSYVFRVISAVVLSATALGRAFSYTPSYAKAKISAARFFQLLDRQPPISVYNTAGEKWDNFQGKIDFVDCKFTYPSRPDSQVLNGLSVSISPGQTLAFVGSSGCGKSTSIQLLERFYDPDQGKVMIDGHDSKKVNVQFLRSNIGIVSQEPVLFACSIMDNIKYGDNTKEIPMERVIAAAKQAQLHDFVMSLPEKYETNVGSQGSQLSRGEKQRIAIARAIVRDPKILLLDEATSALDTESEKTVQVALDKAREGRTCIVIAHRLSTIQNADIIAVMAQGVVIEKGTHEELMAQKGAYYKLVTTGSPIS
smiles,measurement,setting,value
[C-]#[N+][C@]1(C)CC[C@H]2[C@@H]([C@@H](C(C)C)CC[C@]2(C)[N+]#[C-])[C@H]1O [MED6-189],IC50,"[1]; 3D7, read-out: IC50 (µM) P. falciparum (3D7)",0.015 µM
same,IC50,"[1]; 3D7, early-ring stage (6 h after invasion), 72 h exposure, read-out: IC50",0.014 ± 0.002 µM
same,IC50,"[2]; Plasmodium falciparum, D10, 72 h",17 nM
same,IC50,[2],17.2 nM
same,IC50,"[3]; 3D7, Sec13 mut-A",59.8 nM
same,IC50,"[3]; 3D7, Sec13 mut-B",53.5 nM
same,IC50,"[3]; 3D7, Sec13 mut-C",49.5 nM
same,IC50,"[3]; 3D7, Sec13 mut-D",72.9 nM
same,IC50,"[3]; 3D7, read-out: IC50 range, four PfSec13-mut transgenic clones",50 to 73 nM
same,(%) Gametocyte MED6-189 (average),"[4]; 300nM, day 1 post drug introduction",0%
same,(%) Gametocyte MED6-189 (average),"[4]; 300nM, day 2 post drug introduction",0.1035%
same,(%) Gametocyte MED6-189 (average),"[4]; 300nM, day 3 post drug introduction",0.55%
same,% Change of gametocytemia,"[4]; 300nM, day 4",100%
same,(%) Gametocyte MED6-189 (average),"[4]; 300nM, day 4 post drug introduction",1.5%
same,(%) Gametocyte MED6-189 (average),"[4]; 300nM, day 5 post drug introduction",3.175%
same,(%) Gametocyte MED6-189 (average),"[4]; 300nM, day 6 post drug introduction",2.102%
same,(%) Gametocyte MED6-189 (average),"[4]; 300nM, day 7 post drug introduction",1.15%
same,(%) Gametocyte MED6-189 (average),"[4]; 300nM, day 8 post drug introduction",1.35%
same,(%) Gametocyte MED6-189 (average),"[4]; 300nM, day 9 post drug introduction",1.25%
same,inhibition of early gametocyte development vs controls,"[4]; 300 nM, stage III: days 4 to 6",~ 62%
same,gametocytes after high dose,"[4]; early stages of gametocyte development, after 48 hours of drug treatment",no quantifiable gametocytes were observed
same,effect on mature-stage gametocytes,[4]; stage V,little to no effect
same,adverse effects (Functional Observational Battery),"[5]; 50 mg/kg, two mice",didn´t show adverse effects
same,adverse effects (Functional Observational Battery),"[5]; 62.5mg/kg, one mouse",showed adverse effects
same,adverse effects (Functional Observational Battery),"[5]; 100 mg/kg, once, n=1",Adverse effects were found
same,adverse events,[5]; doses up to 50 mg/kg,did not exhibit any adverse events
same,"hematology, clinical chemistry, necropsy",[5]; doses up to 50 mg/kg,no significant changes
same,IC50,[6],50000 nM
